Like-named read-outs stand apart in the source and are kept apart here.
Key:
[1] = tested on: Ac-histone H3 (class I HDACs); assay: Immunoblot analysis of MV-3 cell lysates incl. wash out; format: cell-based, human; settings: for histone H3 acetylation after wash out (immunoblot): MV-3, 5 μM for 48 h, then up to 6 h without inhibitor; for acetylation level of histone H3 (immunoblot): MV-3, 5 μM, 24–72 h, substantial increase after 72 h
Procedure: The impact on the acetylation levels of the HDAC substrates Ac-histone H3 (class I HDACs) and Ac-α-tubulin (HDAC6) was analyzed by immunoblot analysis.
6 Immunoblot analysis of MV-3 cell lysates. […] Representative images from at least three replicates are shown. DMSO (0.025%) was used as vehicle control and GAPDH as loading control.
After that, cells were treated with a concentration of 5 μM of HDAC inhibitor or vehicle (DMSO) for additional 24 h, 48 h or 72 h. For cell lysis the cells were initially washed with PBS and detached using a scraper. The cells were then centrifuged at 1200 rpm for 4 min at 4 °C, followed by two additional washing steps. After that, the cell pellet was resuspended in 100 μL of freshly prepared lysis buffer and incubated on ice for 30 min with vortexing every 10 min. The lysis buffer consisted of Invitrogen cell extraction buffer (10 mM Tris, pH 7.4, 100 mM NaCl, […], […], 1 mM NaF, 20 mM Na4P2O7, 2 mM Na3VO4, 1% Triton × −100, 10% glycerol, 0.1% SDS, 0.5% deoxycholate; Catalog# FNN0011, Thermo Fisher Scientific Inc., Waltham, MA, USA), supplemented with 0.1 mM PMSF (Catalog# 10837091001, Sigma-Aldrich, St. Louis, MO, USA) and Halt Protease Inhibitor (100×) (Catalog# 78429, Life Technologies GmbH Carlsbad, CA, USA). Finally, the samples were centrifuged at 14,000 rpm and 4 °C for 30 min and the supernatant was collected. Protein quantification was performed by using BCA protein assay reagents (Catalog# 23225, Thermo Fisher Scientific Inc., Waltham, MA, USA). Lysates were mixed with Laemmli sample buffer 2× concentrate (Catalog# S3401-10VL, Sigma-Aldrich, St. Louis, MO, USA) to a protein concentration of 1.25 μg/μL and denatured at 95 °C for 5 min. Subsequently, SDS-PAGE was performed with 2–20% Mini-PROTEAN TGX stain-free gels (Catalog# 456809, Bio-Rad, Hercules, CA, USA) at 200 V for 45 min. Proteins were then transferred to a Trans-Blot Turbo-PVDF membrane (Catalog# 1704156, Bio-Rad, Hercules, CA, USA) with the Trans-Blot Turbo Transfer System (Catalog# 1704150, Bio-Rad, Hercules, CA, USA) at 25 V for 5 min. The membrane was blocked with a solution of 5% milk powder in TBST (Tris-buffered saline-Tween 20 0.2%) for 60 min at room temperature. After three washing cycles for 10 min with TBST, the membrane was incubated with the respective antibody and a mouse anti-GAPDH antibody (Catalog# T0004, Affinity Biosciences, Cincinnati, OH, USA; 1:20,000 dilution) at room temperature for 60 min and 4 °C overnight. […] After washing off the secondary antibody, protein bands were detected via chemiluminescence using Clarity Western ECL substrate (Catalog# 1705061, Bio-Rad, Hercules, CA, USA). […]

[2] = tested on: MV-3 cells; assay: MTT cell viability (antiproliferative) assay; format: cell-based, human; settings: for EC50: Homo sapiens, read-out: MV-3 EC50 (MTT); for viability reduction, MV-3 (MTT): at 15 μM, 72 h
Procedure: To evaluate the cytotoxicity of the selected HDAC inhibitors, compounds were tested for their antiproliferative activity against MV-3 and MDA-MB-231 cells using the MTT assay. […] MTT (3-(4,5-dimethylthiazol-2-yl)-2,5-diphenyltetrazolium bromide; Catalog# A2231; BioChemica, Applichem GmbH, Darmstadt, Germany) was utilized to measure the antiproliferative effect. Depending on the incubation time, 3000 MV-3 cells (72 h), 2000 MV-3 cells (96 h) or 1000 MV-3 cells (120 h) per well were seeded in 96-well plates (Starlab GmbH, Hamburg, Germany) with each well containing 199 μL of volume. […] Next, predilutions of the test compounds were prepared in DMSO. […] Subsequently, cells were treated with 1.0 μL of the dilution series of the test compounds. […] After removing the supernatant, formazan was solubilized in 200.0 μL DMSO. The absorbance was measured at 570 nm with background subtraction at 690 nm using a Multiskan microplate photometer (Thermo Fisher Scientific, Waltham, MA, USA). The obtained data were normalized to PBS, considering 100% viability.

[3] = tested on: HDACs in MDA-MB-231 cells; assay: HDAC whole cell inhibition assay; settings: Homo sapiens, MDA-MB-231, light or radiation study, 18 h, read-out: whole-cell HDAC inhibition EC50, MDA-MB-231
Procedure: Furthermore, we determined the EC50 values in the nontumorigenic cell line HEK293 and in the hematological cancer cell line MM.1S.
For this purpose, 3-fold serial dilutions of test compounds (DMSO) were prepared and added at a volume of 0.5 μL to the cells. […] MAL was used in a final concentration of 0.3 mM in the respective cell culture medium with 0.5% IGEPAL CA-630 (Catalog# J61055, Alfa Aesar). […] The obtained data were normalized to vehicle treated cells, considering 100% enzyme activity. IC50 values were determined by generating dose–response curves using the four-parameter logistic equation (GraphPad Prism 8.0, San Diego, USA).

[4] = tested on: Ac-α-tubulin (HDAC6); assay: Immunoblot analysis of MV-3 cell lysates; format: cell-based, human; settings: MV-3, 5 μM, 24–72 h
Procedure: After that, cells were treated with a concentration of 5 μM of HDAC inhibitor or vehicle (DMSO) for additional 24 h, 48 h or 72 h. For cell lysis the cells were initially washed with PBS and detached using a scraper. The cells were then centrifuged at 1200 rpm for 4 min at 4 °C, followed by two additional washing steps. After that, the cell pellet was resuspended in 100 μL of freshly prepared lysis buffer and incubated on ice for 30 min with vortexing every 10 min. […] Finally, the samples were centrifuged at 14,000 rpm and 4 °C for 30 min and the supernatant was collected. […] The membrane was blocked with a solution of 5% milk powder in TBST (Tris-buffered saline-Tween 20 0.2%) for 60 min at room temperature. After three washing cycles for 10 min with TBST, the membrane was incubated with the respective antibody and a mouse anti-GAPDH antibody (Catalog# T0004, Affinity Biosciences, Cincinnati, OH, USA; 1:20,000 dilution) at room temperature for 60 min and 4 °C overnight. […] Membrane was rinsed again three times before applying the secondary antibody for 1.5 h at room temperature.

[5] = MV-3, light or radiation study, incubation time 120 h, no irradiation

| SMILES | histone H3 acetylation after wash out (immunoblot) [1] | acetylation level of histone H3 (immunoblot) [1] | EC50 [2, 5] [nM] | EC50 ([2]; MV-3, incubation time 96 h) [nM] | viability reduction, MV-3 (MTT) [2] [%] | EC50 [3] [nM] | acetylation level of α-tubulin (immunoblot) [4] |
| --- | --- | --- | --- | --- | --- | --- | --- |
| CC(=O)Nc1ccc(C(=O)Nc2cc(-c3ccccc3)ccc2O)cc1 [ST13, 4-Acetamido-N-(4-hydroxy-[1,1′-biphenyl]-3-yl)-benzamide] | persistent histone H3 acetylation | hyperacetylation of histone H3 | 2770 ± 880 | 7940 ± 1360 | < 25 | 577 ± 97 | absence of HDAC6 inhibition |
| CC(=O)Nc1ccc(C(=O)Nc2cc(-c3cccs3)ccc2N)cc1 [Cpd-60, reference compound] | persistent histone H3 acetylation | hyperacetylation of histone H3 | 370 ± 40 | 2340 ± 790 | < 25 | 87 ± 8 | absence of HDAC6 inhibition |

— article PMC12706802, “Ortho-Hydroxyanilides: Slow-Acting, Selective Histone Deacetylase 1/2 Inhibitors Suitable for Photocaging Applications” (ACS Pharmacology & Translational Science, 2025)
